Structures can show the parent of a compound that is named as a salt.
Legend:
Set-up in all cases: species or system AML cell lines (8); Primary HTS, single concentration about 10 uM, Cell Titer Glo viability; log10 luminescence, per cent inhibition relative to cycloheximide control
Conditions in all cases: 72 h, relative to cycloheximide control, log10 luminescence; inhibitor
CMK = test system: CMK
MOLM-13 = test system: MOLM-13
CHRF288-11 = test system: CHRF288-11
ML-2 = test system: ML-2
U937 = test system: U937
M07e = test system: M07e
CMS = test system: CMS
MV4-11 = test system: MV4-11

For `Clc1ccc(-c2nc3sccn3c2/C=N/OCc2ccc(Cl)c(Cl)c2)cc1` [SJ000546521-1, CITCO], the CMK %inh (CMK) was -3.05%, the MOLM-13 %inh (MOLM-13) was -1.049% and the CHRF288-11 %inh (CHRF288-11) was 8.549%. For the same compound, the ML-2 %inh (ML-2) was -0.03995%, the U937 %inh (U937) was -0.9685% and the M07e %inh (M07e) was 0.1835%. The CMS %inh (CMS) was 0.2267% and the MV4-11 %inh (MV4-11) was 0.01601%.
Work on `Cc1ccc(C(=O)Cn2c3c(sc2=N)CCCC3)cc1` [SJ000546523-1, PIFITHRIN-ALPHA HYDROBROMIDE | PIFITHRIN-ALPHA HYDROBROMIDE | | PIFITHRIN-ALPHA (PFTALPHA)] yielded a CMK %inh (CMK) of 3.731%, an MOLM-13 %inh (MOLM-13) of 4.765% and a CHRF288-11 %inh (CHRF288-11) of 6.15%. The ML-2 %inh (ML-2) was -0.3437%, the U937 %inh (U937) was -0.03033% and the M07e %inh (M07e) was 2.173%. The CMS %inh (CMS) was 0.7689% and the MV4-11 %inh (MV4-11) was 4.352%.
With `CN1C(=O)CC(C)(c2ccccc2)C1=O` (stereo not drawn) [SJ000552432-1, METHSUXIMIDE] the CMK %inh (CMK) was 0.7754%, the MOLM-13 %inh (MOLM-13) was 28.78% and the CHRF288-11 %inh (CHRF288-11) was 16.75%. It also gave an ML-2 %inh (ML-2) of 19.33%, a U937 %inh (U937) of 35.22% and an M07e %inh (M07e) of 28%. The CMS %inh (CMS) was -2.292% and the MV4-11 %inh (MV4-11) was 59.35%.
`COc1cc2c(cc1OC)C(=O)C(CC1CCN(Cc3ccccc3)CC1)C2` (stereo not drawn) [SJ000555704-1, DONEPEZIL HYDROCHLORIDE] gave a CMK %inh (CMK) of 10.45%, an MOLM-13 %inh (MOLM-13) of 1.714% and a CHRF288-11 %inh (CHRF288-11) of 3.237%. For the same compound, the ML-2 %inh (ML-2) was 0.002244%, the U937 %inh (U937) was 1.153% and the M07e %inh (M07e) was 3.462%. It also gave a CMS %inh (CMS) of 6.718% and an MV4-11 %inh (MV4-11) of 4.602%.
Compound `C[C@]12C=CC(=O)C=C1CC[C@@H]1[C@@H]2[C@@H](O)C[C@@]2(C)[C@H]1CC[C@]2(O)C(=O)COP(=O)(O)O` [SJ000555709-1, PREDNISOLONE SODIUM PHOSPHATE] has a CMK %inh (CMK) of 1.948%, an MOLM-13 %inh (MOLM-13) of 2.036% and a CHRF288-11 %inh (CHRF288-11) of 1.976%. The ML-2 %inh (ML-2) was -0.8263%, the U937 %inh (U937) was 2.195% and the M07e %inh (M07e) was -1.037%. For the same compound, the CMS %inh (CMS) was 9.04% and the MV4-11 %inh (MV4-11) was 1.456%.
`Cc1nnc(C(C)C)n1[C@@H]1C[C@H]2CC[C@@H](C1)N2CC[C@H](NC(=O)C1CCC(F)(F)CC1)c1ccccc1` [SJ000555710-1, MARAVIROC] gave a CMK %inh (CMK) of -4.287%, an MOLM-13 %inh (MOLM-13) of -2.386% and a CHRF288-11 %inh (CHRF288-11) of 3.241%. The ML-2 %inh (ML-2) was -1.344%, the U937 %inh (U937) was -1.411% and the M07e %inh (M07e) was 0.2532%. For the same compound, the CMS %inh (CMS) was -2.259% and the MV4-11 %inh (MV4-11) was 0.334%.
With `CC[C@@H]([C@H](C)O)n1ncn(-c2ccc(N3CCN(c4ccc(OC[C@@H]5CO[C@@](Cn6cncn6)(c6ccc(F)cc6F)C5)cc4)CC3)cc2)c1=O` [SJ000555711-1, POSACONAZOLE] the CMK %inh (CMK) was -1.399%, the MOLM-13 %inh (MOLM-13) was -0.6762% and the CHRF288-11 %inh (CHRF288-11) was 4.654%. For the same compound, the ML-2 %inh (ML-2) was -0.9552%, the U937 %inh (U937) was 4.703% and the M07e %inh (M07e) was -0.5919%. For the same compound, the CMS %inh (CMS) was 1.852% and the MV4-11 %inh (MV4-11) was 1.133%.
`CCOC(=O)C1=C[C@@H](OC(CC)CC)[C@H](NC(C)=O)[C@@H](N)C1` [SJ000555712-1, OSELTAMIVIR PHOSPHATE] showed a CMK %inh (CMK) of 1.207%, an MOLM-13 %inh (MOLM-13) of -1.922% and a CHRF288-11 %inh (CHRF288-11) of -4.38%. It also gave an ML-2 %inh (ML-2) of 3.111%, a U937 %inh (U937) of -0.7037% and an M07e %inh (M07e) of -1.677%. It also gave a CMS %inh (CMS) of 1.863% and an MV4-11 %inh (MV4-11) of -1.699%.
`CC(=O)O[C@H]1C[C@@H]2CC[C@@H]3[C@H](CC[C@@]4(C)[C@H]3C[C@H](N3CC[N+](C)(C)CC3)[C@@H]4OC(C)=O)[C@@]2(C)C[C@@H]1N1CC[N+](C)(C)CC1` [SJ000555714-1, PIPECURIUM BROMIDE] gave a CMK %inh (CMK) of -9.103%, an MOLM-13 %inh (MOLM-13) of -1.447% and a CHRF288-11 %inh (CHRF288-11) of -2.142%. For the same compound, the ML-2 %inh (ML-2) was 0.08837%, the U937 %inh (U937) was -1.326% and the M07e %inh (M07e) was -1.4%. It also gave a CMS %inh (CMS) of 0.5876% and an MV4-11 %inh (MV4-11) of 0.2738%.

Reference: article PMC6522510 (Nature Communications, 2019)
